Test results: US20110059114A1, “Compositions and Methods for the Treatment of Radioresistant Glioma Stem Cells” (DUKE UNIVERSITY, priority 2009, published 2011)

Assays:
[1] = system: CD133+ cells enriched from medulloblastoma cell lines; settings: cited from earlier work
[2] = system: T4302 CD133+ cells; assay: Annexin V staining, flow cytometry; type: cell-based, human
Method: (§1) FIG. 2 is a series of graphs illustrating that γ-secretase inhibitors enhance radiation-induced cell death in glioma stem cells. (A) T4302 CD 133+ cells were pre-treated with DAPT or L685,458 for 4 hours and irradiated at 3 Gy. Percentage of dead cells was determined by trypan blue exclusion assay at 48 hours after radiation exposure. (B) T4302 CD 133+ cells were treated with GSIs ±radiation as indicated. Cells were then plated at 3000 cells per well in 96-well plates. Relative caspase 3/7 activities were determined by normalizing caspase activities to the corresponding cell titers. (C) T4302 CD 133+ cells were treated as described in FIG. 2A. 24 or 48 hours after radiation exposure, cells were labeled with FITC-conjugated Annexin V staining kit (BD Sciences) according to manufacturer's instructions and analyzed by flow cytometry. (D) T4302 CD 133+ cells were pre-treated with 2 μM DAPT for 4 hours, and were left unirradiated or irradiated at 1, 2 or 3 Gy. Relative caspase 3/7 activities were determined at 72 hours after radiation. (E) T4302 CD133+ cells were pre-treated with DAPT at indicated concentrations for 4 hours and irradiated at 3 Gy. Relative caspase activities were determined at 48 or 72 hours after radiation. *: p<0.01 by Student's t-test; #: p<0.01 by one-way ANOVA.

[3] = system: T4302 CD133+ cells; assay: Trypan blue exclusion assay; type: cell-based, human; settings: two days after 3-Gy radiation
Method: as §1

[4] = system: Chk1 and Chk2; assay: Immunoblotting of activating phosphorylation of Chk1 and Chk2; type: cell-based, human; settings: following radiation, pretreated 24 hours
Method: (A) T4302 CD133+ cells were pretreated with DPAT or L685,458 for 24 hours prior radiation. One hour after radiation exposure, cells were harvested. The levels of activating phosphorylation of Chk1 and Chk2 were assessed by immunoblotting. (B) T4302 CD133+ cells were treated with 2 μM DAPT at 4, 24 hours prior to radiation (−24 hrs, or -4 hrs), or at 0, 4, 24 hours after radiation. Relative caspase 3/7 activities were measured 3 days after radiation exposure. *: p<0.001 by Student's t-test.
Antibodies, DNA constructs, lentiviruses and other reagents. The antibodies purchased from Cell Signaling Technology (Danvers, M A) include phosphor-S296-Chk1 (2349), total Chk1 (2345), phosphor-T68-Chk2 (2661), total Chk2 (2662), phospho-5473 Akt (#9271), total Akt (#9272), PTEN (#9556), phospho-S15-p53 (#9286), Bcl-2 (#2870), Bcl-xL (#2764), Mcl-1 (#4572), Puma (#4976). Other antibodies used in this study are p53 antibody (#sc-126, Santa Cruz Biotechnology, Santa Cruz, Calif.), and actin antibody (Millipore, Billerica, Mass.). The pcDNA3-Notch1 construct was kindly provided by Dr. Spyros Artavanis-Tsakonas, Harvard University. The coding sequences of intracellular domain of Notch1 (amino acid residues 1744-2556) was amplified by PCR and subcloned into the lentiviral vector pCDH-CMV-EF1-puro (System Biosciences, Mountain View, Calif.) through the EcoRI and NotI sites. […]

[5] = system: Notch signaling; assay: Notch-responsive luciferase reporter (RBP-Jκ reporter) assay; type: cell-based, human; settings: T4302 CD133+ cells; 2 μM DAPT or 0.5 μM L685,458 over night
Excerpt: (§2) FIG. 1 is a series of graphs illustrating that γ-secretase inhibitors reduce cell growth and clonogenic survival of glioma stem cells following radiation. (A) T4302 CD133+ glioma stem cells were transfected with a Notch-responsive luciferase reporter (RBP-JK reporter) pre-mixed with the vector directing constitutive expression of Renilla luciferase. Cells were left unirradiated or irradiated at 3 Gy, and were then collected to measure luciferase activities at time points as indicated. […] The relative mRNA levels of Hes2 were determined by quantitative real-time PCR at the time points as indicated. […] Total viable cell numbers were then determined by the CellTiter-Glo Luminescent Cell Viability Assay (Promega) for the following five days. […] Cells were then plated to form neurospheres, and the surviving fractions were determined as described in methods. […] (F,G) Neurosphere formation of T3359 and T4105 CD 133+ cells treated with GSIs alone, 3-Gy radiation alone, or the combination was determined as described in FIG. 1E. *: p<0.05 by Student's t-test; #: p<0.001 by one-way ANOVA.
Luciferase assay. […] The luciferase activities were determined by the Dual-luciferase assay system (Promega).

[6] = system: T4302 CD133+ glioma stem cells; assay: Growth curve, CellTiter-Glo Luminescent Cell Viability Assay; type: cell-based, human; settings: without radiation treatment, day five; 2 μM DAPT or 0.5 μM L685,458
Excerpt: as §2
Growth Curve, caspase 3/7 assay, and clonogenic survival assay. […] Cell number was measured for 5 days using the CellTiter-Glo assay kit (Promega, Madison, […].). […]

| Compound | apoptosis and differentiation in CD133+ cells [1] | apoptosis in nestin-expressing cells in comparison to nestin-negative cells [1] [fold] | tumorigenic capacity of CD133+ cells [1] | Annexin V-positive labeled cells ([2]; 24 hours following 3 Gy radiation) | Annexin V-positive labeled cells ([2]; 48 hours following 3 Gy radiation) | dead cells [3] [%] | activating phosphorylation of Chk1 or Chk2 [4] | Notch signaling in glioma stem cells (Notch-responsive luciferase reporter) [5] | sham-treated cells more than GSI-treated cells (total cell number) [6] [%] |
| --- | --- | --- | --- | --- | --- | --- | --- | --- | --- |
| O=S(=O)(NC1[C@@H]2CC[C@H]1Cc1ccccc1C2)c1cccs1 (stereo partly drawn) [GSI-18] | induces apoptosis and differentiation | 10 | impairs the tumorigenic capacity | – | – | – | – | – | – |
| CC(C)C[C@H](NC(=O)[C@H](Cc1ccccc1)C[C@@H](O)[C@H](Cc1ccccc1)NC(=O)OC(C)(C)C)C(=O)N[C@@H](Cc1ccccc1)C(N)=O [L685,458] | – | – | – | not obvious | significantly increased | 60 | Neither of DAPT or L685,458 significantly altered | blocked | 60 |
